The values that follow come from patent publication US9321718B2 (CHROMA THERAPEUTICS LTD., priority 2010, dated 2016).

Read-outs that look alike come from different tables or passages of the source. Bounds are passed on as bounds.

The target in series [1] is T1, human recombinant his-tagged HSP90α (Homo sapiens, UniProt P07900).
T1 construct: purchased Prospec Technogene #HSP90
The series can be described thus: HSP90 enzyme assay (HTRF, competition with biotinylated Geldanamycin). In kind it is binding. A digest of the protocol:
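HTRF competition: compounds (5000 to 0.3 nM, 0.5% DMSO) displace 40 nM biotinylated geldanamycin from 40 nM his-tagged HSP90α. Binding was read via Eu-cryptate anti-his/streptavidin-XL FRET after 20 h at room temperature in Hepes pH 7.3 buffer. IC50 was fitted against controls.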
Background: Time-resolved FRET reads energy transfer from a long-lived donor to a nearby acceptor.

Series [2] concerns U937 (hCE-1 +ve) cells. The series can be described thus: Proliferation assay, U937 cells. Conditions: for IC50: Homo sapiens, U-937, U937, 72 hours, WST-1, read-out: Proliferation assay: Inhibition of U937 (hCE-1 +ve) cell proliferation IC50. In kind it is cell-based, human. How it is done: (§1) Cells are seeded in 96 well tissue culture plates (1 well=30 mm^2) at an appropriate density (2000 cells per well for U937 cells, 2250 cells per well for HUT-78 and MINO cells) in 50 μl of culture medium (see below for details). 24 Hours later 50 μl of the compound prepared in the same medium is added as 3 fold dilutions to give final concentrations in the range 5-10,000 nM (n=6 for each concentration). The plates are then incubated at 37° C., 5% CO2 for 72 hours. Cell proliferation is assessed using WST-1 (a metabolic indicator dye, Roche Cat no. 11644807001) according to the manufacturer's instructions. The results are calculated as a percentage of vehicle response and plotted as a dose-response curve. IC50 values represent the concentration of compound that inhibits the vehicle response by 50%.
(§2) Culture medium for U937 and RUT-78 cells is RPMI1640 (Sigma R0883) with 10% heat inactivated fetal calf serum (Hyclone SH30071, Perbio), plus 2 mM glutamine (Sigma G7513) and 50 U/ml penicillin and streptomycin sulphate (Sigma P0781). MINO cell culture medium is as for U937 and HUT-78 but supplemented with sodium pyruvate (Sigma S8636) to a final concentration of 1 mM.
Background: Tetrazolium dyes change colour on reduction, which living cells bring about.

Series [3] concerns Hut78 (hCE-1 -ve) cells. Briefly: Proliferation assay, Hut78 cells. It counts as cell-based, human. Conditions: for IC50: Homo sapiens, Hut78, 72 hours, WST-1, read-out: Proliferation assay: Inhibition of Hut78 (hCE-1 -ve) cell proliferation IC50. Here is the method:
as §1, §2

The test system of series [4] is TNFα release from LPS stimulated THP-1 (hCE-1 +ve) cells. Briefly: LPS-stimulation of THP-1 cells (TNF-α release). In kind it is cell-based, human. A digest of the protocol:
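THP-1 cells at 4×10^4 per well were pre-incubated for 16 h, then exposed to inhibitor for 2 h before stimulation with 1 μg/ml LPS for 6 h at 37 °C. TNF-α in cell-free supernatants was measured by sandwich ELISA.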

The subject of series [5] is TNF-α levels in LPS-stimulated human whole blood. Briefly: LPS-stimulation of human whole blood (TNF-α levels). It counts as cell-based. Conditions: IC50 range, TNF-α after LPS 100 ng/ml, 6 hours. How it is done: Whole blood is taken by venous puncture using heparinised vacutainers (Becton Dickinson) and diluted in an equal volume of RPMI1640 tissue culture media (Sigma). 100 μl is then plated in V-bottomed 96 well tissue culture treated plates. 2 Hours after the addition of the inhibitor in 100 μl of RPMI1640 media, the blood is stimulated with LPS (E. Coli strain 005:B5, Sigma) at a final concentration of 100 ng/ml and incubated at 37° C. in 5% CO2 for 6 hours. TNF-α levels are measured from cell-free supernatants by sandwich ELISA (R&D Systems #QTA00B).

Series [6] has as its system intact U937 cells. Briefly: Carboxylic acid accumulation in intact U937 cells. It counts as in vitro ADME, human. Conditions: in words. Here is the method: (§3) The assessment of the accumulation of ester-derived acid in intact human tumour cells can be measured using the following method:
(§4) U937, THP-1 or Hut 78 cells (4×10^4/ml) were incubated at 37° C. in culture medium containing 6 μM compound. Incubations were terminated by centrifugation (300 g; 5 min; 4° C.). Supernatants were added to 4 volumes of HPLC-grade acetonitrile. After decanting the supernatant, the residual cell pellet (1×10^6 cells) was extracted into 1 ml of acetonitrile. Samples were analyzed for the ester and acid metabolite at room temperature by LC/MS/MS (Sciex API3000). Chromatography was based on an AceCN (75*21 mm) column with a 5-95% (v/v) acetonitrile, 0.1% (v/v) formic acid mobile phase.

Series [7] has as its system intact Hut78 cells. The series can be described thus: Carboxylic acid accumulation in intact Hut78 cells. Conditions: in words. It counts as in vitro ADME, human. How it is done: as §3, §4
Series [8] has as its system intact THP-1 cells. Briefly: Carboxylic acid accumulation in intact THP-1 cells. It counts as in vitro ADME, human. Conditions: in words. Here is the method:
as §3, §4

Setting [9] is: compound as drawn (ester for the ester compound), read-out: Enzyme assay: Inhibition of Hsp90 (IC50 nM).
The mark [10] stands for this setting: Homo sapiens, THP-1, read-out: THP-1 assay: Inhibition of TNFα release from LPS stimulated THP-1 (hCE-1 +ve) cells (IC50 nM).
Setting [11] is: IC50 range, read-out: Enzyme Assay.
Where [12] appears, read: Homo sapiens, THP-1, IC50 range, TNF-α after LPS 1 μg/ml, 6 hours, read-out: THP-1 Assay.
Where [13] appears, read: IC50 range, TNF-α after LPS 1 μg/ml, 6 hours, read-out: THP-1 Assay.

`CC1CCN(C(=O)c2cc(C(C)C)c(O)cc2O)CC1` [CHR-7310, reference compound]: the IC50 was 8 nM in series [1] (setting [9]), 0.2 µM in series [2], 0.145 µM in series [3] and 476 nM in series [4] (setting [10]). The “Ratio of IC50's of Hut78 to U937 cells” value in series [3] is around 1.

For `CC(C)C[C@H](NC1CCN(C(=O)c2cc(C(C)C)c(O)cc2O)CC1)C(=O)OC1CCCC1` [Example 1, cyclopentyl N-(1-{[2,4-dihydroxy-5-(propan-2-yl)phenyl]carbonyl}piperidin-4-yl)-L-leucinate], the IC50 in series [5] (Homo sapiens) was 0.1 to 1 µM; in series [1] (setting [11]), below 100 nM; in series [4] (setting [12]), below 100 nM. In series [6], the “Carboxylic acid accumulated by U937 cells” value is recorded as “significant amounts”. Also, in series [7], the “Acid detected in Hut78 cells” value is “negligible”. Besides, the “Carboxylic acid accumulated by THP-1 cells” value in series [8] was “significant amounts”.

Turning to `CC(C)c1cc(C(=O)N2CCC(N[C@@H](COC(C)(C)C)C(=O)OC3CCCC3)CC2)c(O)cc1O` [Example 17, cyclopentyl O-tert-butyl-N-(1-{[2,4-dihydroxy-5-(propan-2-yl)phenyl]carbonyl}piperidin-4-yl)-L-serinate], the IC50 is 0.1 to 1 µM in series [5] (Homo sapiens); below 100 nM in series [1] (setting [11]); 7 nM in series [1] (acid (carboxylic acid of the ester drawn), read-out: Enzyme assay: Inhibition of Hsp90 (IC50 nM)); 42 nM in series [1] (setting [9]); 0.027 µM in series [2]; 0.76 µM in series [3]. In addition, the IC50 in series [4] (setting [12]) was below 100 nM; in series [4] (setting [10]), 45 nM. Also, the “IC50 in the Hsp90 binding assay compared with CHR-7310” value in series [1] (in words, relative to non-ester parent CHR-7310) is reported as “weaker”. The “Potency in U937 cells compared with CHR-7310” value in series [2] (in words, relative to CHR-7310) was “significantly more potent”. The “Ratio of IC50's of Hut78 to U937 cells” value in series [3] is given as 28. Further, the “Potency in Hut78 cells” value in series [3] (in words, Hut78 cells do not contain hCE-1) is “significantly weaker”. In series [4] (in words, relative to CHR-7310), the “Potency in THP-1 cells compared with CHR-7310” value is reported as “significantly more potent”.

Take `CC(C)c1cc(C(=O)N(C)Cc2ccc(CN[C@H](C(=O)OC3CCCC3)c3ccccc3)cc2)c(O)cc1O` [Example 71, cyclopentyl (2S)-[(4-{[{[2,4-dihydroxy-5-(propan-2-yl)phenyl]carbonyl}(methyl)amino]methyl}benzyl)amino](phenyl)ethanoate]: the IC50 in series [5] (Homo sapiens) was 0.1 to 1 µM; in series [1] (setting [11]), 100 to 1000 nM; in series [4] (setting [12]), 100 to 1000 nM.

For the compound `CC(C)c1cc(C(=O)N(C)Cc2ccc(CNC(C)(C)C(=O)OC3CCCC3)cc2)c(O)cc1O` [Example 72, cyclopentyl N-(4-{[{[2,4-dihydroxy-5-(propan-2-yl)phenyl]carbonyl}(methyl)amino]methyl}benzyl)-2-methylalaninate], the results for the IC50 in series [5] (Homo sapiens), in series [1] (setting [11]) and in series [4] (setting [12]) were 0.1 to 1 µM, below 100 nM and 100 to 1000 nM, respectively.

As to `CC(C)c1cc(C(=O)N(C)Cc2ccc(CCNC(C)(C)C(=O)OC3CCCC3)cc2)c(O)cc1O` [Example 73, cyclopentyl N-[2-(4-{[{[2,4-dihydroxy-5-(propan-2-yl)phenyl]carbonyl}(methyl)amino]methyl}phenyl)ethyl]-2-methylalaninate], the IC50 was 0.1 to 1 µM in series [5] (Homo sapiens), below 100 nM in series [1] (setting [11]) and 100 to 1000 nM in series [4] (setting [12]).

Turning to `CC(C)C[C@H](NC[C@H]1CCCN1C(=O)c1cc(C(C)C)c(O)cc1O)C(=O)OC1CCCC1` [Example 74, cyclopentyl N-{[(2R)-1-{[2,4-dihydroxy-5-(propan-2-yl)phenyl]carbonyl}pyrrolidin-2-yl]methyl}-L-leucinate], the IC50 in series [5] (Homo sapiens) was above 1 µM; in series [1] (setting [11]), 100 to 1000 nM; in series [4] (setting [12]), above 1000 nM.

As to `CC(C)C[C@H](NC[C@@H]1CCCN1C(=O)c1cc(C(C)C)c(O)cc1O)C(=O)OC1CCCC1` [Example 75, cyclopentyl N-{[(2S)-1-{[2,4-dihydroxy-5-(propan-2-yl)phenyl]carbonyl}pyrrolidin-2-yl]methyl}-L-leucinate], the values for the IC50 in series [5] (Homo sapiens), in series [1] (setting [11]) and in series [4] (setting [12]) were above 1 µM, above 1000 nM and above 1000 nM, respectively.

For the compound `CC(C)C[C@@H](NC1CCN(C(=O)c2cc(C(C)C)c(O)cc2O)C1)C(=O)OC1CCCC1` (stereo partly drawn) [Example 76, cyclopentyl N-(1-{[2,4-dihydroxy-5-(propan-2-yl)phenyl]carbonyl}pyrrolidin-3-yl)-D-leucinate], the values for the IC50 in series [5] (Homo sapiens), in series [1] (setting [11]) and in series [4] (setting [12]) were above 1 µM, below 100 nM and above 1000 nM, respectively.

Consider “cyclopentyl N-(1-{[2,4-dihydroxy-5-(propan-2-yl)phenyl]carbonyl}piperidin-4-yl)-L-valinate [Example 3]”, for which the IC50 in series [5] is above 1 µM; in series [1] (setting [11]), below 100 nM; in series [4] (setting [13]), above 1000 nM.

For the compound “cyclopentyl N-[(1-{[2,4-dihydroxy-5-(propan-2-yl)phenyl]carbonyl}piperidin-4-yl)methyl]-L-serinate [Example 33]”, the IC50 in series [5] was 0.1 to 1 µM; in series [1] (setting [11]), below 100 nM; in series [4] (setting [13]) it was 100 to 1000 nM.
